Patent US6583120B1, “Erythromycin derivative with antibiotic activity” (Zambon Group S.A., priority 1998, dated 2003)
Converted amounts (≈) assume the structure as drawn.

Assays:
[1] = test system: Streptococcus pneumoniae UC 41; experiment: In vivo therapeutic efficacy (PD50), experimental pulmonary infection in mice; conditions: pulmonitis
[2] = test system: recently clinically isolated, erythromycin-resistant strains of Streptococcus pneumoniae; experiment: In vitro antibacterial activity (MIC), broth-scalar dilution micromethod, erythromycin-resistant clinical isolates; conditions: 18 h, 37° C.
Haemophilus influenzae = experiment: In vitro antibacterial activity (MIC), Gram-negative; conditions: for MIC Range: 11 strains tested; for MIC50 / MIC90: Haemophilus influenzae
[3] = test system: Streptococcus pyogenes C 203; experiment: In vivo therapeutic efficacy (PD50), experimental pulmonary infection in mice; conditions: for PD50: mice, pulmonary infection
Staphylococcus aureus = experiment: In vitro antibacterial activity (MIC), erythromycin-sensitive strains; conditions: for MIC Range: 13 strains tested, erythromycin-sensitive; for MIC50 / MIC90: Staphylococcus aureus
Streptococcus group A = experiment: as above; conditions: for MIC Range: 15 strains tested, erythromycin-sensitive
Escherichia coli = experiment: In vitro antibacterial activity (MIC), Gram-negative; conditions: 3 strains tested
Klebsiella pneumoniae = experiment: as above; conditions: for MIC Range: 6 strains tested; for MIC50 / MIC90: Klebsiella pneumoniae
Streptococcus pneumoniae = experiment: In vitro antibacterial activity (MIC), erythromycin-sensitive strains; conditions: for MIC Range: 18 strains tested, erythromycin-sensitive; for MIC50 / MIC90: Streptococcus pneumoniae
Branhamella catarrhalis = experiment: In vitro antibacterial activity (MIC), Gram-negative; conditions: for MIC Range: 5 strains tested; for MIC50 / MIC90: Moraxella catarrhalis
Streptococcus agalactiae = experiment: In vitro antibacterial activity (MIC), erythromycin-sensitive strains; conditions: for MIC Range: 4 strains tested, erythromycin-sensitive; for MIC50 / MIC90: Streptococcus agalactiae
[4] = oral single dose 24 hours before the infection
[5] = oral single dose 48 hours before the infection
[6] = Strain 871, erythromycin-resistant
[7] = Strain 1035, erythromycin-resistant
[8] = Strain 1047, erythromycin-resistant
[9] = Strain 1051, erythromycin-resistant
[10] = Strain 1188, erythromycin-resistant
[11] = Strain 1392, erythromycin-resistant
[12] = Strain 9114, erythromycin-resistant
[13] = Strain 9117, erythromycin-resistant
[14] = oral single dose 1 hour after the infection
[15] = oral single dose 72 hours before the infection

| SMILES | MIC Range (Haemophilus influenzae) [µg/mL] | MIC50 (Haemophilus influenzae) [µg/mL] | MIC Range (Staphylococcus aureus) [µg/mL] | MIC50 (Staphylococcus aureus) [µg/mL] | MIC90 (Staphylococcus aureus) [µg/mL] | MIC50 (Streptococcus group A) [µg/mL] | MIC90 (Streptococcus group A) [µg/mL] | MIC Range (Streptococcus group A) [µg/mL] | MIC Range (Klebsiella pneumoniae) [µg/mL] | MIC50 (Klebsiella pneumoniae) [µg/mL] | MIC90 (Klebsiella pneumoniae) [µg/mL] | MIC Range (Streptococcus pneumoniae) [µg/mL] | MIC50 (Streptococcus pneumoniae) [µg/mL] | MIC90 (Streptococcus pneumoniae) [µg/mL] | MIC Range (Branhamella catarrhalis) [µg/mL] | MIC50 (Branhamella catarrhalis) [µg/mL] | MIC90 (Branhamella catarrhalis) [µg/mL] | MIC Range (Streptococcus agalactiae) [µg/mL] | MIC50 (Streptococcus agalactiae) [µg/mL] | MIC90 (Streptococcus agalactiae) [µg/mL] | other results |
| --- | --- | --- | --- | --- | --- | --- | --- | --- | --- | --- | --- | --- | --- | --- | --- | --- | --- | --- | --- | --- | --- |
| CC[C@H]1OC(=O)[C@H](C)[C@@H](O[C@H]2C[C@@](C)(OC)[C@@H](O)[C@H](C)O2)[C@H](C)[C@@H](O[C@@H]2O[C@H](C)C[C@H](N(C)C)[C@H]2O)[C@](C)(O)C[C@@H](C)CN(C)[C@H](C)[C@@H](O)[C@]1(C)O [Azithromycin] | 0.25 to 1 | 0.5 (≈ 0.668 µM) | 0.5 to 1 | 0.5 (≈ 0.668 µM) | 1 (≈ 1.34 µM) | 0.0625 (≈ 0.0834 µM) | 0.125 (≈ 0.167 µM) | 0.0625 to 1 | 4 to 8 | 4 (≈ 5.34 µM) | 8 (≈ 10.7 µM) | 0.0156 to 0.5 | 0.0312 (≈ 0.0417 µM) | 0.0625 (≈ 0.0834 µM) | 0.0078 to 0.0156 | 0.0156 (≈ 0.0208 µM) | 0.0156 (≈ 0.0208 µM) | 0.0312 to 0.25 | 0.0625 (≈ 0.0834 µM) | 0.25 (≈ 0.334 µM) | PD50 [1, 4]: 16.45 µmol/kg; PD50 [1, 5]: 34.13 µmol/kg; MIC [2, 6]: 2 µg/mL (≈ 2.67 µM); MIC [2, 7]: 2 µg/mL (≈ 2.67 µM); MIC [2, 8]: 4 µg/mL (≈ 5.34 µM); MIC [2, 9]: 64 µg/mL (≈ 85.4 µM); MIC [2, 10]: 8 µg/mL (≈ 10.7 µM); MIC [2, 11]: 16 µg/mL (≈ 21.4 µM); MIC [2, 12]: 32 µg/mL (≈ 42.7 µM); MIC [2, 13]: 64 µg/mL (≈ 85.4 µM); MIC90 (Haemophilus influenzae): 1 µg/mL (≈ 1.34 µM); therapeutic efficacy (duration of action in vivo), in words ([3]; 72 hours after administration): lose most of their efficacy; PD50 [3, 14]: 5.32 µmol/kg; PD50 [3, 4]: 16.45 µmol/kg; PD50 [3, 5]: 34.13 µmol/kg; PD50 [3, 15]: >85.4 µmol/kg; MIC Range (Escherichia coli): 2 to 4 µg/mL |
| CC[C@H]1OC(=O)[C@H](C)[C@@H](O[C@H]2C[C@@](C)(OC)[C@@H](O)[C@H](C)O2)[C@H](C)[C@@H](O[C@@H]2O[C@H](C)C[C@H](N(C)C)[C@H]2O)[C@](C)(O)C[C@@H](C)/C(=N\OCOCCOC)[C@H](C)[C@@H](O)[C@]1(C)O [Roxithromycin] | 4 to 16 | 8 (≈ 9.56 µM) | 0.25 to 1 | 0.5 (≈ 0.597 µM) | 1 (≈ 1.19 µM) | 0.0625 (≈ 0.0747 µM) | 0.0625 (≈ 0.0747 µM) | 0.0312 to 1 | >64 | > 64 | > 64 | 0.0156 to 0.5 | 0.0625 (≈ 0.0747 µM) | 0.0625 (≈ 0.0747 µM) | 0.0312 to 0.0625 | 0.0312 (≈ 0.0373 µM) | 0.0625 (≈ 0.0747 µM) | 0.0625 to 0.25 | 0.125 (≈ 0.149 µM) | 0.25 (≈ 0.299 µM) | MIC90 (Haemophilus influenzae): 8 µg/mL (≈ 9.56 µM) |
| CC[C@H]1OC(=O)[C@H](C)[C@@H](O[C@H]2C[C@@](C)(OC)[C@@H](O)[C@H](C)O2)[C@H](C)[C@@H](O[C@@H]2O[C@H](C)C[C@H](N(C)C)[C@H]2O)[C@](C)(OC)C[C@@H](C)C(=O)[C@H](C)[C@@H](O)[C@]1(C)O [Clarithromycin] | 2 to 8 | – | 0.125 to 0.25 | 0.25 (≈ 0.334 µM) | 0.25 (≈ 0.334 µM) | 0.0156 (≈ 0.0209 µM) | 0.0156 (≈ 0.0209 µM) | 0.0078 to 0.25 | 64 (≈ 85.6 µM) | 64 (≈ 85.6 µM) | 64 (≈ 85.6 µM) | 0.0039 to 0.125 | 0.0156 (≈ 0.0209 µM) | 0.0156 (≈ 0.0209 µM) | 0.0078 to 0.0156 | 0.0156 (≈ 0.0209 µM) | 0.0156 (≈ 0.0209 µM) | 0.0156 to 0.0625 | 0.0312 (≈ 0.0417 µM) | 0.0625 (≈ 0.0836 µM) | therapeutic efficacy (duration of action in vivo), in words ([3]; administered 24 hours before the infection): lose most of their efficacy; PD50 [3, 14]: 7.38 µmol/kg; PD50 [3, 4]: >85.6 µmol/kg; MIC Range (Escherichia coli): 16 to 64 µg/mL |
| CC[C@H]1OC(=O)[C@H](C)[C@@H](OC2CC(C)(OC)C(O)C(C)O2)[C@H](C)[C@@H](OC2OC(C)CC(N(C)C)C2O)[C@](C)(O)C[C@@H](C)/C(=N\OCCNCCCCCCNCc2nccs2)[C@H](C)[C@@H](O)[C@]1(C)O (stereo partly shown) [Compound A] | 1 to 8 | 4 (≈ 4.05 µM) | 0.25 to 1 | 0.5 (≈ 0.506 µM) | 0.5 (≈ 0.506 µM) | 0.0156 (≈ 0.0158 µM) | 0.0312 (≈ 0.0316 µM) | 0.0078 to 0.5 | 16 to 32 | 16 (≈ 16.2 µM) | 32 (≈ 32.4 µM) | 0.0019 to 0.25 | 0.0039 (≈ 0.00395 µM) | 0.0156 (≈ 0.0158 µM) | 0.0019 to 0.125 | 0.125 (≈ 0.126 µM) | 0.125 (≈ 0.126 µM) | 0.0078 to 0.25 | 0.0156 (≈ 0.0158 µM) | 0.25 (≈ 0.253 µM) | PD50 [1, 4]: 16.39 µmol/kg; PD50 [1, 5]: 25.90 µmol/kg; MIC [2, 6]: 0.5 µg/mL (≈ 0.506 µM); MIC [2, 7]: 2 µg/mL (≈ 2.02 µM); MIC [2, 8]: 2 µg/mL (≈ 2.02 µM); MIC [2, 9]: 1 µg/mL (≈ 1.01 µM); MIC [2, 10]: 2 µg/mL (≈ 2.02 µM); MIC [2, 11]: 4 µg/mL (≈ 4.05 µM); MIC [2, 12]: 0.25 µg/mL (≈ 0.253 µM); MIC [2, 13]: 0.25 µg/mL (≈ 0.253 µM); MIC90 (Haemophilus influenzae): 4 µg/mL (≈ 4.05 µM); therapeutic efficacy (duration of action in vivo), in words ([3]; 72 hours after administration): still effective; PD50 [3, 14]: 15.45 µmol/kg; PD50 [3, 4]: 16.39 µmol/kg; PD50 [3, 5]: 25.90 µmol/kg; PD50 [3, 15]: 31.51 µmol/kg; MIC Range (Escherichia coli): 1 to 8 µg/mL |
